US7932270B2 (Cytokinetics, Inc., priority 2006, dated 2011)

Biological target: T1, chicken gizzard smooth muscle myosin subfragment-1 chemically crosslinked to cardiac or skeletal actin (Gallus gallus, UniProt P10587)
T1 construct: chicken gizzard smooth muscle myosin subfragment-1; from tissue; host or cells: chicken gizzard
Experiment: Smooth muscle myosin ATPase dose response assay (pyruvate kinase/horseradish peroxidase/pyruvate oxidase-coupled, amplex red fluorescence)
Type: biochemical
Conditions: read-out: IC50 Arithmetic Mean
Summary of the method: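 Lead-optimization format: ATPase coupled via pyruvate kinase, pyruvate oxidase and peroxidase, pH 7.00 at 22° C, with 0.15 mM ATP, 100 mM KCl, 2 mM MgCl2, 2 mM phosphate and 0.1 mM amplex red (final). Crosslinked S1 titrated empirically for set hydrolysis rate; fluorescence (ex 480/em 615 nm) dose curves fit 4-parameter for IC50.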

T1 sequence (P02607 2-151): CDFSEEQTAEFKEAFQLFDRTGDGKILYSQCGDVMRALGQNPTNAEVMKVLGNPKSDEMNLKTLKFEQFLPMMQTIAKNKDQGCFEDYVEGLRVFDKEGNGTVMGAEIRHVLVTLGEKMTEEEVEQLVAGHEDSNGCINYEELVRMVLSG
T1 sequence (P10587 84-789): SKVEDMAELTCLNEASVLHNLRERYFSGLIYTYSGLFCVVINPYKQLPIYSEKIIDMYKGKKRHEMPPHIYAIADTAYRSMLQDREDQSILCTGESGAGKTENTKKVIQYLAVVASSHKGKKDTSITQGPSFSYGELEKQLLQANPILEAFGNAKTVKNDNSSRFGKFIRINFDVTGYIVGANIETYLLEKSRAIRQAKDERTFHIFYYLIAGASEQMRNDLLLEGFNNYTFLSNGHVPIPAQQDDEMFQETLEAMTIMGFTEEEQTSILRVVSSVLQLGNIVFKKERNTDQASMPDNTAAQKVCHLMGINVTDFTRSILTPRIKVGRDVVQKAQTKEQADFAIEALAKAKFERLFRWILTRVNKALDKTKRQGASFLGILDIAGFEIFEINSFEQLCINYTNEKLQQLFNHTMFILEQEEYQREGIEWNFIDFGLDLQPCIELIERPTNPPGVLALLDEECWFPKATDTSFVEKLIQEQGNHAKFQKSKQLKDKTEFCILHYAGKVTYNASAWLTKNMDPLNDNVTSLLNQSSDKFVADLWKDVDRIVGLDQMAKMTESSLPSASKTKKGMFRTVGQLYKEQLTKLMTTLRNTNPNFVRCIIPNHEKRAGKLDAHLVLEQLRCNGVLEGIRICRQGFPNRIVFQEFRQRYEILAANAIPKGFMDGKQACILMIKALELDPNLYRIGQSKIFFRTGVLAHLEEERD

SMILES | IC50
N#Cc1ccccc1-c1ccc(C(=O)NCc2ncccc2CN)c(NCCc2cccc(F)c2)n1 [N-{[3-(aminomethyl)(2-pyridyl)]methyl}(6-(2-cyanophenyl)-2-{[2-(3-fluorophenyl)ethyl]amino}(3-pyridyl))carboxamide] | 624 nM
N#Cc1ccccc1-c1ccc(C(=O)NC[C@H]2CCCN2C(=O)[C@@H](N)CN)c(NCCc2cccc(F)c2)n1 [N-{[(2R)-1-((2S)-2,3-diaminopropanoyl)pyrrolidin-2-yl]methyl}(6-(2-cyanophenyl)-2-{[2-(3-fluorophenyl)ethyl]amino}(3-pyridyl))carboxamide] | 59 nM
Cn1cc(-c2nc(NCCc3cccc(F)c3)c(C(=O)NC[C@H]3CCN3C(=O)CN)cc2F)cn1 [N-{[(2R)-1-(2-aminoacetyl)azetidin-2-yl]methyl}(5-fluoro-2-{[2-(3-fluorophenyl)ethyl]amino}-6-(1-methylpyrazol-4-yl)(3-pyridyl))carboxamide] | 50 nM
N#Cc1ccccc1-c1ccc(C(=O)NC[C@H]2CCCCN2C(=O)OCCN)c(NCCc2cccc(F)c2)n1 [2-aminoethyl (2R)-2-{[(6-(2-cyanophenyl)-2-{[2-(3-fluorophenyl)ethyl]amino}(3-pyridyl))carbonylamino]methyl}piperidinecarboxylate] | 91 nM
CC(C)(C)OC(=O)N[C@@H](CO)C(=O)N1CCC[C@@H]1CNC(=O)c1cc(F)c(-c2cn[nH]c2)nc1NCCc1cccc(F)c1 [N-[((2R)-1-{(2S)-2-[(tert-butoxy)carbonylamino]-3-hydroxypropanoyl}pyrrolidin-2-yl)methyl](5-fluoro-2-{[2-(3-fluorophenyl)ethyl]amino}-6-pyrazol-4-yl(3-pyridyl))carboxamide] | 1000 nM
O=C(NCc1cccnc1)c1ccc(-c2ccc(F)cc2)nc1NCCc1cccc(F)c1 [(6-(4-fluorophenyl)-2-{[2-(3-fluorophenyl)ethyl]amino}(3-pyridyl))-N-(3-pyridylmethyl)carboxamide] | 198 nM
N#Cc1ccccc1-c1ccc(C(=O)NCc2ccc(N3CCNCC3)nc2)c(NCCc2cccc(F)c2)n1 [(6-(2-cyanophenyl)-2-{[2-(3-fluorophenyl)ethyl]amino}(3-pyridyl))-N-[(6-piperazinyl(3-pyridyl))methyl]carboxamide] | 1750 nM
CC(C)(C)OC(=O)N1CCC[C@@H]1CNC(=O)c1ccc(-c2cn[nH]c2)nc1NCCc1cccc(F)c1 [tert-butyl (2R)-2-{[(2-{[2-(3-fluorophenyl)ethyl]amino}-6-pyrazol-4-yl(3-pyridyl))carbonylamino]methyl}pyrrolidinecarboxylate] | 3170 nM
N#Cc1ccccc1-c1ccc(C(=O)N[C@@H](CCCCN)C(N)=O)c(NCCc2cccc(F)c2)n1 [N-((1S)-5-amino-1-carbamoylpentyl)(6-(2-cyanophenyl)-2-{[2-(3-fluorophenyl)ethyl]amino}(3-pyridyl))carboxamide] | 4420 nM
CN(CCNC(=O)c1ccc(-c2ccccc2C#N)nc1NCCc1cccc(F)c1)C(=O)CN [2-amino-N-{2-[(6-(2-cyanophenyl)-2-{[2-(3-fluorophenyl)ethyl]amino}(3-pyridyl))carbonylamino]ethyl}-N-methylacetamide] | 1370 nM
O=C(NCc1cccnc1)c1ccc(-c2cccc(C(F)(F)F)c2)nc1NCCc1ccccn1 [{2-[(2-(2-pyridyl)ethyl)amino]-6-[3-(trifluoromethyl)phenyl](3-pyridyl)}-N-(3-pyridylmethyl)carboxamide] | 5930 nM
O=C(NC[C@H]1CCNC1)c1ccc(-c2ccccc2)nc1NCCc1ccccn1 [N-[((3S)pyrrolidin-3-yl)methyl]{6-phenyl-2-[(2-(2-pyridyl)ethyl)amino](3-pyridyl)}carboxamide] | 62600 nM
Cn1cc(-c2nc(NCCc3cccc(F)c3)c(C(=O)NC[C@H]3CCC(=O)N3)cc2F)cn1 [N-[((2R)-5-oxopyrrolidin-2-yl)methyl](5-fluoro-2-{[2-(3-fluorophenyl)ethyl]amino}-6-(1-methylpyrazol-4-yl)(3-pyridyl))carboxamide] | 27 nM
CCCNc1nc(-c2ccccc2)ccc1C(=O)NCc1cccnc1 [[6-phenyl-2-(propylamino)(3-pyridyl)]-N-(3-pyridylmethyl)carboxamide] | 11400 nM
CC(=O)N1CC(=O)N[C@@H](CNC(=O)c2ccc(-c3ccccc3C#N)nc2NCCc2cccc(F)c2)C1 (stereo in doubt) [N-[(4-acetyl-6-oxopiperazin-2-yl)methyl](6-(2-cyanophenyl)-2-{[2-(3-fluorophenyl)ethyl]amino}(3-pyridyl))carboxamide] | 1630 nM

Now from value to molecule:

IC50 | SMILES
55700 nM | NCc1ccsc1-c1ccc(C(=O)NCc2cccnc2)c(NCCc2cccc(F)c2)n1 [(6-[3-(aminomethyl)(2-thienyl)]-2-{[2-(3-fluorophenyl)ethyl]amino}(3-pyridyl))-N-(3-pyridylmethyl)carboxamide]
141 nM | COC(=O)[C@@H](C)CNC(=O)c1cc(F)c(-c2cnn(C)c2)nc1NCCc1cccc(F)c1 [methyl (2S)-3-[(5-fluoro-2-{[2-(3-fluorophenyl)ethyl]amino}-6-(1-methylpyrazol-4-yl)(3-pyridyl))carbonylamino]-2-methylpropanoate]
486 nM | CNC(=O)CNC(=O)c1ccc(-c2ccccc2)nc1NCCc1ccccc1 [N-methyl-2-({6-phenyl-2-[(2-phenylethyl)amino](3-pyridyl)}carbonylamino)acetamide]
2700 nM | NCc1ccc(-c2ccc(C(=O)NCc3cccnc3)c(NCCc3cccc(F)c3)n2)s1 [(6-[5-(aminomethyl)(2-thienyl)]-2-{[2-(3-fluorophenyl)ethyl]amino}(3-pyridyl))-N-(3-pyridylmethyl)carboxamide]
1290 nM | O=C(NCc1ccncc1)c1ccc(-c2ccccc2)nc1NCCc1ccccn1 [{6-phenyl-2-[(2-(2-pyridyl)ethyl)amino](3-pyridyl)}-N-(4-pyridylmethyl)carboxamide]
99 nM | N#Cc1ccccc1-c1ccc(C(=O)NC[C@H]2CCCN2C(=O)CCCCN)c(NCCc2cccc(F)c2)n1 [N-{[(2R)-1-(5-aminopentanoyl)pyrrolidin-2-yl]methyl}(6-(2-cyanophenyl)-2-{[2-(3-fluorophenyl)ethyl]amino}(3-pyridyl))carboxamide]
2680 nM | CC(=O)N1CCCC[C@@H]1CNC(=O)c1ccc(-c2ccccc2C#N)nc1NCCc1cccc(F)c1 [N-[((2R)-1-acetyl(2-piperidyl))methyl](6-(2-cyanophenyl)-2-{[2-(3-fluorophenyl)ethyl]amino}(3-pyridyl))carboxamide]
22 nM | Cc1ncccc1CNC(=O)c1ccc(-c2ccccc2C#N)nc1NCCc1cccc(F)c1 [(6-(2-cyanophenyl)-2-{[2-(3-fluorophenyl)ethyl]amino}(3-pyridyl))-N-[(2-methyl(3-pyridyl))methyl]carboxamide]
352 nM | N#Cc1ccccc1-c1ccc(C(=O)NCC2CCCC(CN)C2)c(NCCc2cccc(F)c2)n1 (stereo not shown) [N-{[3-(aminomethyl)cyclohexyl]methyl}(6-(2-cyanophenyl)-2-{[2-(3-fluorophenyl)ethyl]amino}(3-pyridyl))carboxamide]
2320 nM | CNC(=O)[C@@H](N)CNC(=O)c1ccc(-c2ccccc2C#N)nc1NCCc1cccc(F)c1 [(2S)-2-amino-3-[(6-(2-cyanophenyl)-2-{[2-(3-fluorophenyl)ethyl]amino}(3-pyridyl))carbonylamino]-N-methylpropanamide]
